# Measurements reported in US7087809B2, “Natural herbicide resistance in wheat” (Natural Genes, Inc., priority 2003, dated 2006).
# How the values were obtained:
# Assay type in all cases: in vivo, Triticum aestivum
# [1] = tested on: hard red spring wheat populations (W1 through W15); assay: Soaking of wheat seeds in glyphosate herbicide solution, planting in herbicide-treated growing medium, count of surviving plants; settings: for Surviving plants after seed treatment: seed soaking and planting; for Number of Surviving Wheat Plants: approx. 5,000 seeds
# Method: Preferably the wheat seeds are soaked in an aqueous solution of the herbicide. Commonly the herbicide is present in the solution in a concentration of approximately 1.5 to 6 percent by weight, and most preferably in a concentration of approximately 2 percent by weight. Commonly the wheat seeds are simply immersed in the liquid comprising the herbicide. The soaking of wheat seeds is conducted for a period of time that is sufficient for the herbicide to reach the embryos of the wheat seeds. […] The liquid comprising the herbicide can be simply provided at room temperature when the wheat seeds are in contact with the liquid and are undergoing such soaking.
# Alternatively, such screening of the resulting wheat plants for herbicide resistance can include the presence of the herbicide in the growing medium where the resulting seeds are planted. Good results are obtained in a preferred embodiment when one gallon of a solution containing the herbicide in a concentration of approximately 1.5 to 6 percent by weight is added to each 4 gallons of soil. The presence of the herbicide in the soil helps to assure that an atypical wheat seed having a harder seed coat has not given a false indication of herbicide resistance by its survival up to the point of germination.
# Some varieties have produced no surviving plants in tests to date. Some varieties have produced up to approximately 4 surviving plant per 5,000 seeds, others approximately 1 surviving plant per 5,000 seeds. The herbicide resistance of the resulting plants can be further confirmed by another contact (e.g., spraying) with the glyphosate herbicide.
# Fifteen different known and publically available hard red spring wheat populations (W1 through W15) were chosen for evaluation and screening in accordance with the process of the present invention. Each of the starting materials was believed to lack herbicide resistance that is attributable to genetic engineering. Also, each population, as all other Triticum aestivium varieties, was regarded to be highly sensitive to glyphosate herbicide during previous observations.
# Individual batches of each wheat population were initially immersed and were soaked in 2 percent aqueous solutions of glyphosate herbicide that were present at room temperature. The wheat seeds were provided in contact with the glyphosate herbicide for a period of 6 hours during which time the glyphosate herbicide reached the embryos of the seeds.
# Each wheat seed population was labeled and next was planted in a 50/50 sandy-loam top soil/peat growing medium. The wheat seeds were present in flats containing the growing medium at a depth of approximately 2 inches. The same 2 percent by weight aqueous solutions of glyphosate herbicide were poured into each growing medium containing the wheat seeds.
# The flats containing the wheat seeds next were placed in a greenhouse under ambient conditions in an effort to achieve germination. The sandy-loam top soil/peat growing medium was periodically watered in an effort to achieve near field growing conditions except for the presence of glyphosate herbicide.
# Of those that did germinate some died within the first 2 days, and only 6 of the 15 wheat populations produced any plants following the soaking in the glyphosate herbicide as reported in Table I. These 6 populations were W1 to W5 and W15. Each plant was carefully preserved and tagged in order to preserve the lineage for those that survived the exposure to the glyphosate herbicide at the seed stage.
# [2] = tested on: wheat plants of the 64 flats (progeny of surviving plants); assay: Spraying of progeny seedlings of surviving plants with glyphosate herbicide at the three-leaf stage in the greenhouse; settings: 1.2 percent aqueous solution sprayed at three-leaf stage
# Source text: Fifteen seeds from each head of each surviving plant were next planted in 64 individual flats in a greenhouse containing a like 50/50 sandy-loam top soil/peat growing medium. A designation system was adopted which began with the initial Wheat Population Designation (e.g., W1) next followed by the plant number (e.g., −1, −2 for W1), and finally followed by the head number (e.g., h1). The wheat plants of the 64 flats were identified as follows:
# The seeds were encouraged to germinate and wheat plants emerged. At the three-leaf stage a 1.2 percent aqueous solution of glyphosate herbicide was applied to the plants by spraying. […] Remnant seeds from these 2 plants taken from heads W2-1-h10 and W2-4-h9 were planted in the greenhouse, germinated, and underwent self-pollination to increase the seeds. Plants derived from these seeds were not subjected to the glyphosate herbicide in an effort to maximize yield and to establish a germplasm base for further testing. W2-1-h10 produced six healthy plants that were designated W2-1-h10-p1-1a through -6a. The “a” designation served to specify that the generation was not treated with glyphosate herbicide. Similarly, W2-4-h9 produced 10 plants that were designated W2-4-h9-p1-1a through 10a. All plants were allowed to mature, to undergo self-pollination, and to produce seed heads. Each head was tagged to maintain a clear record of lineage. […]
# [3] = tested on: wheat selections of 'WA7824'/'Zeke' pedigree; assay: Glyphosate herbicide treatment of selections grown in greenhouse flats (after field head row treatment); settings: 1.2 percent by weight aqueous solution sprayed at three-leaf stage; for Number Killed by Glyphosate Herbicide Treatment / Number of Survivors of Glyphosate Herbicide Treatment: greenhouse flats
# Source text: The wheat seedlings arising from the germination of this planting were allowed to establish and grow to the three-leaf stage. At this stage of growth glyphosate herbicide was applied to the plants at a rate of 32 oz. per Acre. Survivors of this treatment were allowed to mature, to undergo self-pollination, and the heads from each plant were tagged, removed, and placed in individual containers to ensure a record of continuous lineage from the plants used in the increase (i.e., W2-1-h10-p1-la through 6a and W2-4-h9-p1-la through 10a). Seeds from each head removed from the surviving plants that were exposed to glyphosate herbicide in the field head row plots next were planted in flats in the greenhouse for germination and seedling establishment. The seeds from each head were planted in separate flats to maintain the integrity of each line. At the three-leaf stage, the resulting seedlings were sprayed with an aqueous 1.2 percent by weight solution of glyphosate herbicide. Surviving plants were allowed to grow to maturity, to undergo self-pollination, and to produce heads and seeds. This was done to ensure that the survivors of the glyphosate herbicide treatment also remained fertile and produced viable seeds.
smiles,measurement,setting,value
"O=C(O)CNCP(=O)(O)O [glyphosate herbicide, N-(phosphonomethyl)glycine]",Germination of glyphosate herbicide-treated seeds,"[1]; approx. 75,000 seeds of 15 populations, 2 percent aqueous glyphosate, 6 hours soak, observed 10 to 15 days",failed to germinate
same,Surviving plants after seed treatment,[1]; other varieties,"approximately 1 surviving plant per 5,000 seeds"
same,Number of wheat populations (of 15) that produced any plants following the soaking,"[1]; populations W1 through W15, 2 percent aqueous glyphosate, 6 hours soak",6
same,Surviving plants after seed treatment,[1]; some varieties,"≤ 4 surviving plant per 5,000 seeds"
same,Number of Surviving Wheat Plants,"[1]; wheat population W1 ('ID377'/'WestBred 926'), 2 percent aqueous glyphosate, 6 hours soak, same solution in growing medium",4
same,Number of Surviving Wheat Plants,"[1]; wheat population W2 ('WA7824'/'Zeke'), 2 percent aqueous glyphosate, 6 hours soak, same solution in growing medium",5
same,Number of Surviving Wheat Plants,"[1]; wheat population W3 ('SLW97606'/'WestBred 926'), 2 percent aqueous glyphosate, 6 hours soak",1
same,Number of Surviving Wheat Plants,"[1]; wheat population W4 ('SLW97606'/'WestBred 936'), 2 percent aqueous glyphosate, 6 hours soak",2
same,Number of Surviving Wheat Plants,"[1]; wheat population W5 ('SLW97606'/'Zeke'), 2 percent aqueous glyphosate, 6 hours soak",1
same,Number of Surviving Wheat Plants,"[1]; wheat population W6 ('BZ692-108b'/'Calorwa'), 2 percent aqueous glyphosate, 6 hours soak",0
same,Number of Surviving Wheat Plants,"[1]; wheat population W7 ('BZ966-472w'/'Pristine'), 2 percent aqueous glyphosate, 6 hours soak",0
same,Number of Surviving Wheat Plants,"[1]; wheat population W8 ('Hank'/'BZ994-484'), 2 percent aqueous glyphosate, 6 hours soak",0
same,Number of Surviving Wheat Plants,"[1]; wheat population W9 ('MT9959'/'Hank'), 2 percent aqueous glyphosate, 6 hours soak",0
same,Number of Surviving Wheat Plants,"[1]; wheat population W10 ('McNeal'/'Parshall'), 2 percent aqueous glyphosate, 6 hours soak",0
same,Number of Surviving Wheat Plants,"[1]; wheat population W11 ('Reeder'/'Conan'), 2 percent aqueous glyphosate, 6 hours soak",0
same,Number of Surviving Wheat Plants,"[1]; wheat population W12 ('WA7899'/'Jefferson'), 2 percent aqueous glyphosate, 6 hours soak",0
same,Number of Surviving Wheat Plants,"[1]; wheat population W13 ('Alpowa'/'Zak'), 2 percent aqueous glyphosate, 6 hours soak",0
same,Number of Surviving Wheat Plants,"[1]; wheat population W14 ('Vanna'/'Zak'), 2 percent aqueous glyphosate, 6 hours soak",0
same,Number of Surviving Wheat Plants,"[1]; wheat population W15 ('Zak'/'BZ698-41'), 2 percent aqueous glyphosate, 6 hours soak",4
same,Seedlings surviving the application of glyphosate herbicide,[2]; seedlings derived from W1-2,single seedling
same,Seedlings surviving the application of glyphosate herbicide,[2]; seedlings derived from W2-4,single seedling
same,Tolerance of plants of the selections to the herbicide,[3]; all selections from field head rows,All selections generated plants that were tolerant to the herbicide
same,Number Killed by Glyphosate Herbicide Treatment,[3]; selection W2-1-h10-p16a-h2-h1,0
same,Number of Survivors of Glyphosate Herbicide Treatment,[3]; selection W2-1-h10-p16a-h2-h1,10
same,Number Killed by Glyphosate Herbicide Treatment,[3]; selection W2-1-h10-p16a-h2-h5,0
same,Number of Survivors of Glyphosate Herbicide Treatment,[3]; selection W2-1-h10-p16a-h2-h5,15
same,Number Killed by Glyphosate Herbicide Treatment,[3]; selection W2-4-h9-p13a-h2-h17,0
same,Number of Survivors of Glyphosate Herbicide Treatment,[3]; selection W2-4-h9-p13a-h2-h17,3
same,Number Killed by Glyphosate Herbicide Treatment,[3]; selection W2-4-h9-p13a-h2-h18,0
same,Number of Survivors of Glyphosate Herbicide Treatment,[3]; selection W2-4-h9-p13a-h2-h18,5
